Experimental data reported in patent US12692238B2, “Substituted pyridazinone herbicides” (FMC CORPORATION, priority 2020, dated 2026).

Experiments:
Assay type in all cases: in vivo
corn (Zea mays) = assay: Test A postemergence, corn; conditions: Zea mays, post-emergence, 240 h, Postemergence, 0 to 100 scale, 10 days; for Corn plant response rating (crop injury, 0 = no effect, 100 = complete kill) at 31 g/ha: 31 g ai/ha; for Corn plant response rating (crop injury, 0 = no effect, 100 = complete kill) at 125 g/ha: 125 g ai/ha
Procedure, shortened: (§1)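 Test chemicals, formulated in a non-phytotoxic solvent mixture with surfactant, are applied either as a directed preemergence soil spray or postemergence to seedlings at the one- to two-leaf stage. Injury is scored visually after 10 days, 0 = no effect to 100 = complete control.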

[1] = test system: ryegrass, Italian (Italian ryegrass, Lolium multiflorum); assay: Test A preemergence, ryegrass, Italian; conditions: Lolium multiflorum, pre-emergence, 240 h, 0 to 100 scale, 10 days, read-out: Plant response rating, Ryegrass, Italian; for pest or weed control at 31 g/ha: 31 g ai/ha; for pest or weed control at 125 g/ha: 125 g ai/ha
Procedure, shortened: as §1

[2] = test system: sedge, umbrella (small-flower umbrella sedge, Cyperus difformis); assay: Test B flooded paddy test, sedge, umbrella; conditions: Cyperus difformis; 250 g ai/ha, Flood; visually evaluated after 10 to 14 days; read-out: Plant response rating, Sedge, Umbrella (0 to 100 scale where 0 is no effect and 100 is complete control)
Procedure, shortened: (§2)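 Compound added straight to paddy water of pots flooded to 3 cm, with 2-leaf-stage plants; water level held for the test. Injury scored visually against untreated controls after 10 to 14 greenhouse days, 0 (none) to 100 (complete control).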

[3] = test system: foxtail, green (green foxtail, Setaria viridis); assay: Test A postemergence, foxtail, green; conditions: 10 days
Text: (§3) Seeds of plant species selected from barnyardgrass (Echinochloa crus-galli), blackgrass (Alopecurus myosuroides), corn (Zea mays), foxtail, giant (giant foxtail, Setaria faberi), foxtail, green (green foxtail, Setaria viridis), goosegrass (Eleusine indica), kochia (Bassia scoparia), oat, wild (wild oat, Avena fatua), palmer amaranth (pigweed, palmer, Amaranthus palmeri), redroot pigweed (Amaranthus retroflexus), ragweed (common ragweed, Ambrosia artemisiifolia), ryegrass, Italian (Italian ryegrass, Lolium multiflorum), and soybean (Glycine max) were planted into a blend of loam soil and sand and treated preemergence with a directed soil spray using test chemicals formulated in a non-phytotoxic solvent mixture which included a surfactant.
(§4) At the same time, plants selected from these crop and weed species and also wheat (Triticum aestivum), galium (catchweed bedstraw, Galium aparine) and horseweed (Erigeron canadensis) were planted in pots containing the same blend of loam soil and sand and treated with postemergence applications of test chemicals formulated in the same manner. Plants ranged in height from 2 to 10 cm and were in the one- to two-leaf stage for the postemergence treatment. Treated plants and untreated controls were maintained in a greenhouse for 10 days, after which time all treated plants were compared to untreated controls and visually evaluated for injury. Plant response ratings, summarized in Table A, are based on a 0 to 100 scale where 0 is no effect and 100 is complete control. A dash (-) response means no test result.

rice (Oryza sativa) = assay: Test B flooded paddy test, rice; conditions: Oryza sativa; 250 g ai/ha, Flood; visually evaluated after 10 to 14 days; read-out: Plant response rating, Rice (0 to 100 scale where 0 is no effect and 100 is complete control)
Procedure, shortened: as §2

[4] = test system: foxtail, green (green foxtail, Setaria viridis); assay: Test A preemergence, foxtail, green; conditions: 0 to 100 scale, 10 days
Text: as §3, §4

[5] = 31 g ai/ha, postemergence, 0 to 100 scale (0 no effect, 100 complete control)
[6] = Postemergence, 125 g ai/ha, 0 to 100 scale

| SMILES | Corn plant response rating (crop injury, 0 = no effect, 100 = complete kill) at 31 g/ha (corn (Zea mays)) [%] | Corn plant response rating (crop injury, 0 = no effect, 100 = complete kill) at 125 g/ha (corn (Zea mays)) [%] | pest or weed control at 31 g/ha [1] [%] | pest or weed control at 125 g/ha [1] [%] | pest or weed control at 250 g/ha [2] [%] | Plant response rating, Foxtail, Green [3, 5] | Plant response rating, Foxtail, Green [3, 6] | plant injury at 250 g/ha (rice (Oryza sativa)) [%] | Plant response rating, Foxtail, Green ([4]; 31 g ai/ha) | Plant response rating, Foxtail, Green ([4]; 125 g ai/ha) |
| --- | --- | --- | --- | --- | --- | --- | --- | --- | --- | --- |
| CC(=O)OCOc1c(Cl)nn(C)c(=O)c1-c1c(C)sc2cccc(Cl)c12 [Compound 1, 5-[(acetyloxy)methoxy]-6-chloro-4-(4-chloro-2-methylbenzo[b]thien-3-yl)-2-methyl-3(2H)-pyridazinone] | 0 | 0 | 0 | 10 | 0 | 0 | 10 | 10 | 0 | 10 |
| CC(=O)OCOc1c(C)nn(C)c(=O)c1-c1c(Br)sc2ccc(F)cc12 [Compound 2, 5-[(acetyloxy)methoxy]-4-(2-bromo-5-fluorobenzo[b]thien-3-yl)-2,6-dimethyl-3(2H)-pyridazinone] | 0 | 30 | 70 | 100 | 45 | – | – | 0 | – | – |
| CC(=O)OCOc1c(Cl)nn(C)c(=O)c1-c1c(C)ccc2ccc(C)cc12 [Compound 3, 5-[(Acetyloxy)methoxy]-6-chloro-4-(2,7-dimethyl-1-naphthalenyl)-2-methyl-3(2H)-pyridazinone] | 0 | 20 | 20 | 100 | 98 | – | – | 0 | – | – |
| CC(=O)OCOc1c(Cl)nn(C)c(=O)c1-c1c(C)ccc2ccccc12 [Compound 5, 5-[(acetyloxy)methoxy]-6-chloro-2-methyl-4-(2-methyl-1-naphthalenyl)-3(2H)-pyridazinone] | 0 | 10 | 70 | 100 | 85 | 40 | 80 | 35 | 50 | 90 |
